# Source: patent US20250236611A1, “PYRAZOLE COMPOUNDS AND USES THEREOF” (ALCON INC., priority 2021, published 2025)
# How the values were obtained:
# Format in all cases: biochemical
# Details in all cases: 10 nM JAK enzyme, 800 nM Abl peptide, room temperature 75 min
# TYK2 = TYK2 (Homo sapiens, UniProt P29597); assay: JAK assay (KINASE-GLO luminescent kinase assay), TYK2
# Description: All compounds were initially prepared as 10 mM stocks in anhydrous dimethylsulfoxide (DMSO). […] Test compounds were then serially diluted 1:5 in DMSO for an 11-point concentration response and further diluted in the assay buffer bringing all compound concentrations to a final range of 100 μM to 10 pM in 2.5% DMSO. The assay was performed in white 96-well, flat-bottom, half-area, non-binding assay plate (Corning #3642) in assay buffer consisting of 20 mM HEPES (pH 7.5), 10 mM MgCl2*6H2O, 100 μM sodium orthovanadate, 0.05% CHAPS and 0.1% bovine serum albumin. A 10 μL aliquot of compound from each well of the intermediate dilution plate and 20 μL of a 2×JAK substrate/enzyme solution containing acceptor substrate (800 nM Abl peptide), JAK enzyme (10 nM JAK1, JAK2, JAK3, or TYK2), and 1,4-Dithiothreitol (DTT, 2 μM) were added to all wells. The reaction was initiated by the addition of 10 μL of 4× stock solution ATP (2 μM). Reactions were thoroughly mixed manually, covered and allowed to incubate at room temperature for 75 min. Protein kinase activity was quantitated using Promega's KINASE-GLO™ luminescent Kinase Assay Kit according to the manufacturer's directions. ATP concentrations remaining in Test wells following the termination of the enzymatic reaction were compared against control wells containing equivalent amounts of DMSO containing no inhibitor (CTRL). […] Percent of Control (POC) values were determined for each concentration of compound tested according to the equation:
# (§1) [formula] • IC50 values were calculated using the following 4-parameter logistic curve-fitting algorithm:
# (§2) [formula] • IC50 values were converted to Ki values using the Cheng-Prusoff Equation: […]
# JAK1 = JAK1 (Homo sapiens, UniProt P23458); assay: JAK assay (KINASE-GLO luminescent kinase assay), JAK1
# Description: (§3) All compounds were initially prepared as 10 mM stocks in anhydrous dimethylsulfoxide (DMSO). A 20 μL aliquot of the 10 mM solutions was transferred to individual wells in column 1 of a 96-well polypropylene microtiter plate (Corning #3363) and diluted with DMSO to give a final compound concentration of 4 mM. Test compounds were then serially diluted 1:5 in DMSO for an 11-point concentration response and further diluted in the assay buffer bringing all compound concentrations to a final range of 100 μM to 10 pM in 2.5% DMSO. The assay was performed in white 96-well, flat-bottom, half-area, non-binding assay plate (Corning #3642) in assay buffer consisting of 20 mM HEPES (pH 7.5), 10 mM MgCl2*6H2O, 100 μM sodium orthovanadate, 0.05% CHAPS and 0.1% bovine serum albumin. A 10 μL aliquot of compound from each well of the intermediate dilution plate and 20 μL of a 2×JAK substrate/enzyme solution containing acceptor substrate (800 nM Abl peptide), JAK enzyme (10 nM JAK1, JAK2, JAK3, or TYK2), and 1,4-Dithiothreitol (DTT, 2 μM) were added to all wells. The reaction was initiated by the addition of 10 μL of 4× stock solution ATP (2 μM). Reactions were thoroughly mixed manually, covered and allowed to incubate at room temperature for 75 min. Protein kinase activity was quantitated using Promega's KINASE-GLO™ luminescent Kinase Assay Kit according to the manufacturer's directions. ATP concentrations remaining in Test wells following the termination of the enzymatic reaction were compared against control wells containing equivalent amounts of DMSO containing no inhibitor (CTRL). […] Percent of Control (POC) values were determined for each concentration of compound tested according to the equation:
# as §1, §2
# JAK3 = target: T1, JAK3 (Homo sapiens, UniProt P52333); assay: JAK assay (KINASE-GLO luminescent kinase assay), JAK3
# T1 sequence (P52333 1-1124): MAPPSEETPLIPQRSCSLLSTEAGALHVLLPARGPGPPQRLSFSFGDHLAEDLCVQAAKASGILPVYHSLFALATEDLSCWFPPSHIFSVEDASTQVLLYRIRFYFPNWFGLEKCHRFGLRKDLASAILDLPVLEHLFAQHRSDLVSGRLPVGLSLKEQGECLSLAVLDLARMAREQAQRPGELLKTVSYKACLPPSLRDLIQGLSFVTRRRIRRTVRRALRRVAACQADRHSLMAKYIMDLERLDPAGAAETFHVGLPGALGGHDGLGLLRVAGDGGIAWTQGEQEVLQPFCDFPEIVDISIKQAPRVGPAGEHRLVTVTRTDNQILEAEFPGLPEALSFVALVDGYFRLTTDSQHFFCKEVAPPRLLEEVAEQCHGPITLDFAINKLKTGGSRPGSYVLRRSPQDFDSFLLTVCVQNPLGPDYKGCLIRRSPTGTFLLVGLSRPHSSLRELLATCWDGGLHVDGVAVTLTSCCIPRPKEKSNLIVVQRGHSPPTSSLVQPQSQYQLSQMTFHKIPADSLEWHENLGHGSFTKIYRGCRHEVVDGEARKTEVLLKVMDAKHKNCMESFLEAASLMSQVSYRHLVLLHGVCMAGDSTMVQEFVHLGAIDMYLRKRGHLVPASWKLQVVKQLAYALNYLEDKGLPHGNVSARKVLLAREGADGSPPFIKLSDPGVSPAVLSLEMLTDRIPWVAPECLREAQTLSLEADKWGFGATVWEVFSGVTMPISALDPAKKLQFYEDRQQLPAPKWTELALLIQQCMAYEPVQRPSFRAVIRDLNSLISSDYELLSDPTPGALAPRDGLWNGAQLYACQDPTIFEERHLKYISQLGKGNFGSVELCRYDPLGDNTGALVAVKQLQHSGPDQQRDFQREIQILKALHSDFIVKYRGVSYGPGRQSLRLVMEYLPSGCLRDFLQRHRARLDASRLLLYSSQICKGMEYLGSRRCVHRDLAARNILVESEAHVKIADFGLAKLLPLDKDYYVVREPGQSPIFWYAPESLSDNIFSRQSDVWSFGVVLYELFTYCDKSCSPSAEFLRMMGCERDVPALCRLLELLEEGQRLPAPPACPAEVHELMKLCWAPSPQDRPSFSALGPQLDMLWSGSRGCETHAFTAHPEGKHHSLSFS
# Description: as §3, §1, §2
# JAK2 = JAK2 (Homo sapiens, UniProt O60674); assay: JAK assay (KINASE-GLO luminescent kinase assay), JAK2
# Description: as §3, §1, §2
# Sequence of JAK2 (O60674 whole entry): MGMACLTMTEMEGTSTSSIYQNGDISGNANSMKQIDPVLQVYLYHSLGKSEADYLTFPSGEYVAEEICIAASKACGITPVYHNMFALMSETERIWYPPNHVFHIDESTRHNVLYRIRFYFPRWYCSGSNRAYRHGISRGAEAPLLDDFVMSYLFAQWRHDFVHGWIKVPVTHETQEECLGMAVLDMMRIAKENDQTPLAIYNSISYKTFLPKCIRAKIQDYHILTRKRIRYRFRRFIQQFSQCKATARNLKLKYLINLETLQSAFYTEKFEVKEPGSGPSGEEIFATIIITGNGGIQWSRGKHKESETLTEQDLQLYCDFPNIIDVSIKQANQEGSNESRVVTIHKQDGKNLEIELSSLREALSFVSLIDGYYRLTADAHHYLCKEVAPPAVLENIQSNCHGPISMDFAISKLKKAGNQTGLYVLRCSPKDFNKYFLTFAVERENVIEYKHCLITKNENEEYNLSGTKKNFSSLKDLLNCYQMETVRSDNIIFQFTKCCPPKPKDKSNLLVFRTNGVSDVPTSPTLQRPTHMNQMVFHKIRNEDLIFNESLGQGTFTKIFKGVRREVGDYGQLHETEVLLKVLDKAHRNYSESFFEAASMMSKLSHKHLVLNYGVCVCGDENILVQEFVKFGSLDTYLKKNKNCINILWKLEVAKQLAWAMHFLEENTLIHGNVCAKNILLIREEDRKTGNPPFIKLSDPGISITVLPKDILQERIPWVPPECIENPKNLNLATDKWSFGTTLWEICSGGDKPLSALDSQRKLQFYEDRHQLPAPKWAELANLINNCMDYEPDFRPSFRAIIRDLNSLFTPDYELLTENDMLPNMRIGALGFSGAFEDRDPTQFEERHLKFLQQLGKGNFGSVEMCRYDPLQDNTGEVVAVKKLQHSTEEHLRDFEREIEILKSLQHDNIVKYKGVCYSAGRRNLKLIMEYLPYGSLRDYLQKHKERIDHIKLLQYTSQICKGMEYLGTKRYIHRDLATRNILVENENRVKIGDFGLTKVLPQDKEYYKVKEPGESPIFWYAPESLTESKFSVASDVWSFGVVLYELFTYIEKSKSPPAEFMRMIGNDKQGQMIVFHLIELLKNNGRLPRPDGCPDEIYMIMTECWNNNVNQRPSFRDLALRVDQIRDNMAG
# Sequence of JAK1 (P23458 whole entry): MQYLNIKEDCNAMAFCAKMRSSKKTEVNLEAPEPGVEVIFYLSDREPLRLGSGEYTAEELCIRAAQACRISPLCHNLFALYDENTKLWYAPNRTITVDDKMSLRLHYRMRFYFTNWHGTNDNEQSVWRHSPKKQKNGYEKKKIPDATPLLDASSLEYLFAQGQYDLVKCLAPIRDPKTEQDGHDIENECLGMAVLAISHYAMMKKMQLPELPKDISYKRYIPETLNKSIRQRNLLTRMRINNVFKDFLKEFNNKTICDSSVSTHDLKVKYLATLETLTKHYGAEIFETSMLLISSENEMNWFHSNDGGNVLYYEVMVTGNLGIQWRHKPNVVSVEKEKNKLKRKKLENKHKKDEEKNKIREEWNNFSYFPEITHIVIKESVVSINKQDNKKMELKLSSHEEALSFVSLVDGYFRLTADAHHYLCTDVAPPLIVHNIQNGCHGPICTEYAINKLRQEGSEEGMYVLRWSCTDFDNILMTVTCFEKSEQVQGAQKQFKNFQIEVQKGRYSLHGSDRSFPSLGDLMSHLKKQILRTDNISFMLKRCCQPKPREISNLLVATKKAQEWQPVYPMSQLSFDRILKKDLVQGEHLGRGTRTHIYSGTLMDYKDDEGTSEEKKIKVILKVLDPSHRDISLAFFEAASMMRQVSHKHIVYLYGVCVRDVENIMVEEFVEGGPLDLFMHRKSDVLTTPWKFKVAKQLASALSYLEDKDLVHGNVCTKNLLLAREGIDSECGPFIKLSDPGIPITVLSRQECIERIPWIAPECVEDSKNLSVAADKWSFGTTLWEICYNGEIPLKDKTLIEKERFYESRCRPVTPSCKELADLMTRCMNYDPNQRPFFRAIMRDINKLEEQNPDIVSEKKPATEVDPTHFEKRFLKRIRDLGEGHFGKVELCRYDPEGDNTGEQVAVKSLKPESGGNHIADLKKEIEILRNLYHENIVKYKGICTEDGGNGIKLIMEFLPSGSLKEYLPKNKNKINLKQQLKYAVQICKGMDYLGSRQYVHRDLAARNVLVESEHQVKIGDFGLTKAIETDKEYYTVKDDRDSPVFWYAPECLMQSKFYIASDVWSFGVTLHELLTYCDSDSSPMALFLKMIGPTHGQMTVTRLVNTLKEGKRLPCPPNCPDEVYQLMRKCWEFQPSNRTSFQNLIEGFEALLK
# Sequence of TYK2 (P29597 whole entry): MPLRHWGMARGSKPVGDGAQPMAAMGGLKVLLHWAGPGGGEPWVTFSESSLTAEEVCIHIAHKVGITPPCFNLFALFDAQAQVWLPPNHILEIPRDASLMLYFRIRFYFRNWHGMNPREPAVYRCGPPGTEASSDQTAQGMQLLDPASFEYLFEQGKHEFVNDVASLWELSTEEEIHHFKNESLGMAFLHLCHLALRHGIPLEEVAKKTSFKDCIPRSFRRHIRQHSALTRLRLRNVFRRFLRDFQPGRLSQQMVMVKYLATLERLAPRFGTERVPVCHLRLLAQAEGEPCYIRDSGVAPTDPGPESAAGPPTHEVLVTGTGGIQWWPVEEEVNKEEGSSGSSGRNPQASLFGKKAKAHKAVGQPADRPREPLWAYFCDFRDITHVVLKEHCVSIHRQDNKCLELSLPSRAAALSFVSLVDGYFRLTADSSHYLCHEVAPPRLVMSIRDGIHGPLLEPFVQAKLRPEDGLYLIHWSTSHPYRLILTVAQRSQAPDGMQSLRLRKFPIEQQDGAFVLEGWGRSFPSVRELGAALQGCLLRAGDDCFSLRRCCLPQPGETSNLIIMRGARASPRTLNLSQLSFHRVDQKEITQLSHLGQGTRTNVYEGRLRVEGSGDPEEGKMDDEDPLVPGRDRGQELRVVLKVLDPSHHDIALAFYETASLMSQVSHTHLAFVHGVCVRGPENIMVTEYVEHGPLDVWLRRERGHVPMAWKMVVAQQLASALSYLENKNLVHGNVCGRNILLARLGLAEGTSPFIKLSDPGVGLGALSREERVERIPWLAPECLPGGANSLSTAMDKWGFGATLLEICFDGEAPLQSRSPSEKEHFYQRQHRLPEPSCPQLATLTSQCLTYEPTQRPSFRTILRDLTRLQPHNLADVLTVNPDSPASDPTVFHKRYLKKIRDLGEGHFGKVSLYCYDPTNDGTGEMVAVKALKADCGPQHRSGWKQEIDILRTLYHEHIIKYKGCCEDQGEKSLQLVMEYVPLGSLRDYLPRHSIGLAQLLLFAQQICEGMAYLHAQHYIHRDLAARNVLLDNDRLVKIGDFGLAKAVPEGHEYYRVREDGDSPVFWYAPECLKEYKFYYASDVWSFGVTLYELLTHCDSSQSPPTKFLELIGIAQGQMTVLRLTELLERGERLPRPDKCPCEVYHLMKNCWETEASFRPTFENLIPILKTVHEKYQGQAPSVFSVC
IC50 (TYK2),IC50 (JAK1),IC50 (JAK3),IC50 (JAK2),SMILES
< 100 nM,< 100 nM,< 10 nM,< 10 nM,COc1cnc(Nc2ccc(N3CCN(C)CC3)cc2)nc1-c1cnn(CC2(Cl)CC2)c1 [COC1═C(N═C(NC2═CC═C]
< 100 nM,< 100 nM,< 100 nM,< 10 nM,Cc1cnc(Nc2ccnc(OCCN(C)C)c2)nc1-c1cnn(CC2(CC#N)CC2)c1 [CN(C)CCOC1═CC(═CC═N1)NC2═NC(═C]
< 100 nM,< 1000 nM,< 100 nM,< 10 nM,COc1cnc(Nc2ccc(C3(O)COC3)cc2)nc1-c1cnn(CC2(CF)CC2)c1 [COC1═C(N═C(NC2═CC═C(C═C2)C3]
< 100 nM,< 100 nM,< 10 nM,< 10 nM,NCc1cccc(Nc2ncc(Cl)c(-c3cnn(CC4(CF)CC4)c3)n2)c1 [NCC1═CC═CC(═C1)NC2═NC(═C]
< 100 nM,< 1000 nM,< 100 nM,< 10 nM,N#CCCn1cc(-c2nc(Nc3ccc(N4CCOCC4)cc3F)ncc2Cl)cn1 [FC1═CC(═CC═C1NC2═NC(═C]
< 100000 nM,< 100000 nM,< 100000 nM,< 100000 nM,N#CCCn1cc(-c2nc(Nc3ccsc3)ncc2Cl)cn1 [ClC1═C(N═C(NC2═CSC═C2)N═C1)C3═C[N]]
< 10 nM,< 10 nM,< 10 nM,< 10 nM,COC(=O)c1cc(Nc2ncc(C)c(-c3cnn(CCC#N)c3)n2)ccc1N1CCOCC1 [COC(═O)C1═C(C═CC(═C1)NC2═NC(═C]
< 1000 nM,< 1000 nM,< 1000 nM,< 10 nM,N#CCCn1cc(-c2nc(Nc3cccc(C(=O)O)c3)ncc2Cl)cn1 [OC(═O)C1═CC═CC(═C1)NC2═NC]
> 50000 nM,> 50000 nM,> 50000 nM,< 100000 nM,N#CCCn1cc(-c2nc(NC3CCNCC3(F)F)ncc2Cl)cn1 (stereo not drawn) [FC1(F)CNCCC1NC2═NC(═C]
< 10 nM,< 10 nM,< 10 nM,< 10 nM,N#CCCn1cc(-c2nc(Nc3ccc(N4CCOCC4)c(F)c3)ncc2Cl)cn1 [FC1═CC(═CC═C1N2CCOCC2)NC3═NC(═C]
< 10 nM,< 100 nM,< 100 nM,< 10 nM,N#CCCn1cc(-c2nc(Nc3ccc(CCOP(=O)(O)O)cc3)ncc2Cl)cn1 [O[P](O)(═O)OCCC1═CC═C(NC2═NC(═C]
< 1000 nM,1880 nM,< 1000 nM,< 100 nM,COC1(c2ccc(Nc3ncc(C)c(-c4cnn(CC5(CF)CC5)c4)n3)cc2)COC1 [COC1(COC1)C2═CC═C(NC3═NC(═C]

# More lines, now with the values behind:
SMILES,IC50 (TYK2),IC50 (JAK1),IC50 (JAK3),IC50 (JAK2)
Cc1cnc(Nc2ccc(CN3CCN(C)CC3)cc2)nc1-c1cnn(CC2(CF)CC2)c1 [CN1CCN(CC1)CC2═CC═C(NC3═NC],< 100 nM,< 1000 nM,< 100 nM,< 10 nM
CC(C)(C)OC(=O)N1CC(CF)(Cn2cc(-c3nc(Nc4ccc(C(N)=O)cc4)ncc3Cl)cn2)C1 [CC(C)(C)OC(═O)N1CC(CF)(C1)C[N]2C═C],< 100 nM,< 100 nM,< 100 nM,< 100 nM
Cc1cnc(Nc2ccnc(CN(C)C)c2)nc1-c1cnn(CC2(CF)CCC2)c1 [CN(C)CC1═CC(═CC═N1)NC2═NC(═C],< 100 nM,< 1000 nM,< 100 nM,< 10 nM
Cc1cnc(NCCN2CCCCC2)nc1-c1cnn(CCC#N)c1 [CC1═C(N═C(NCCN2CCCCC2)N═C1)C3═C[N]],> 50000 nM,> 50000 nM,> 50000 nM,> 50000 nM
Cc1cnc(Nc2ccc(CCN(C)C)cc2)nc1-c1cnn(CC2(CF)CC2)c1 [CN(C)CCC1═CC═C(NC2═NC(═C],< 100 nM,< 1000 nM,< 100 nM,< 10 nM
Cc1cnc(Nc2cccc3c2CNC3=O)nc1-c1cnn(CC2(Cl)CC2)c1 [CC1═C(N═C(NC2═C3CNC],< 100000 nM,< 100000 nM,< 1000 nM,< 100 nM
Cc1cnc(Nc2ccc(N3CC(N(C)C)C3)cc2)nc1-c1cnn(CC2(CF)CC2)c1 [CN(C)C1CN(C1)C2═CC═C(NC3═NC],< 100 nM,< 100 nM,< 10 nM,< 10 nM
Cc1cc(Nc2ncc(Cl)c(-c3cnn(CCC#N)c3)n2)on1 [CC1═NOC(═C1)NC2═NC(═C],< 100 nM,< 100 nM,< 1000 nM,< 10 nM
Cc1cnc(Nc2cc(CN(C)C)ns2)nc1-c1cnn(CC2(CF)CC2)c1 [CN(C)CC1═NSC(═C1)NC2═NC(═C],< 10 nM,< 100 nM,< 100 nM,< 10 nM
Cc1cnc(Nc2ccc(CO)c(CO)c2)nc1-c1cnn(CC2(CF)CC2)c1 [CC1═C(N═C(NC2═CC═C(CO)C],< 10 nM,< 100 nM,< 100 nM,< 10 nM
Cc1cnc(Nc2cccc(CN3CCN(C)CC3)c2)nc1-c1cnn(CC2(CF)CC2)c1 [CN1CCN(CC1)CC2═CC═CC(═C2)NC3═NC(═C],< 1000 nM,< 1000 nM,< 100 nM,< 10 nM
CCc1cnc(Nc2cc(C)ns2)nc1-c1cnn(CC2(Cl)CC2)c1 [CCC1═C(N═C(NC2═CC],< 100 nM,< 100 nM,< 10 nM,< 10 nM
Cc1cnc(NC(=O)Oc2ccc(Cl)cc2)nc1-c1cnn(CC2(CF)CC2)c1 [CC1═C(N═C(NC(═O)OC2═CC═C],< 100000 nM,< 100000 nM,< 100000 nM,< 1000 nM
Cc1cnc(Nc2ccc3c(c2)C(=O)N(C)C3=O)nc1-c1cnn(CC2(Cl)CC2)c1 [CN1C(═O)C2═C(C═C(NC3═NC(═C],< 100 nM,< 1000 nM,< 100 nM,< 10 nM
Cc1cnc(N2CCCCC2)nc1-c1cnn(CCC#N)c1 [CC1═C(N═C(N═C1)N2CCCCC2)C3═C[N]],> 50000 nM,> 50000 nM,> 50000 nM,> 50000 nM
